Assay results as given in PMC9317316, “Synthesis and Evaluation of Some New 4H-Pyran Derivatives as Antioxidant, Antibacterial and Anti-HCT-116 Cells of CRC, with Molecular Docking, Antiproliferative, Apoptotic and ADME Investigations” (Pharmaceuticals, 2022).
“And” between values parts separate entries of the source, which are not always exact repeats. Identical values can stand only once. Like-named read-outs stand apart in the source and are kept apart here.

Columns and labels:
[1] = DPPH radical scavenging assay
Procedure: The IC50 values for DPPH were calculated from the plot of the scavenging effect against the compound concentration.
The compounds’ capacities to scavenge the stable radical 1,1 diphenyl-2-picrylhydrazyl (DPPH) formed in solution by donation of a hydrogen atom or an electron was investigated according to the method described by Bersuder and coworkers. Due to the fact that the initial blue/purple solution of diphenyl picrylhydrazine changes to yellow in the presence of compounds with a capacity to scavenge DPPH free radicals, this reaction is used as a measure of a compound’s ability to scavenge any free radical. Briefly, a 0.5 mL volume of DPPH ethanolic solution was mixed with an equal volume of each sample concentration (0.03 to 1 mg/mL), shaken strongly and incubated at room temperature for 1 h in darkness. The absorbance of the residual DPPH radicals was measured at 519 nm and compared to that of the control (without the tested compound). DPPH radical scavenging was calculated using the following formula: Scavenging effect (%) = (1 − Acompound/AControl) × 100, where Acompound and Acontrol are the absorbances of the tested compound and of the control, respectively. A plot of the scavenging effect (%) versus the sample concentration was also performed to determine the compound concentration providing 50% inhibition (IC50).

[2] = Reducing power assay (FRAC, Fe3+ to Fe2+); details: 0-1 mg/mL, absorbance 700 nm
Procedure: Secondly, FRAC was determined over the concentration range of 0.0−1 mg/mL via monitoring Fe^3+−Fe^2+ transformation in the presence of the studied compounds and the reference antioxidant BHT to estimate the values of efficient concentration (EC50), expressed in mM.
The reducing power of the studied compounds was assessed according to Oyaizu’s method. Briefly, different concentrations (ranging from 0 to 1 mg/mL) of each tested compound were first mixed with 1 mL of 0.2 M sodium phosphate buffer (pH 6.6) and 1 mL of 1% potassium ferricyanide (K3Fe(CN)6) and incubated at 50 °C for 20 min. After the addition of 1.25 mL of 20% trichloroacetic acid (TCA), the mixture was centrifuged for 10 min at 3000 rpm and the upper layer solution was then mixed with 0.5 mL of 0.1% fresh ferric chloride and an equal volume of deionized water. Finally, the absorption of the resulting mixture was measured at 700 nm using a UV spectrophotometer against distilled water as the blank, while butylated hydroxytoluene (BHT) was used as a positive control. The sample ferric reducing power capability was indicated by increased absorbance.

B. cereus (ATCC 14579) [3] = assay: Antibacterial agar diffusion method (inhibition zone); format: cell-based
Procedure: (§1) The results for the in vitro antibacterial properties of the synthesized compounds against five Gram-positive and four Gram-negative human-pathogenic strains, which were assessed by both the agar diffusion method (based on inhibition zone (IZ)) and the broth dilution bioassay (for the determination of the half-maximal inhibitory concentration (IC50) values), using ampicillin as the reference antibiotic drug, are shown in Table 2 and Table 3.
(§2) The antibacterial activity of all synthesized compounds was evaluated against the Gram-negative strains E. coli (ATCC 25966), K. pneumonia (ATCC 700603), P. aeruginosa (ATCC 27853) and S. enteric (ATCC 43972) and against the Gram-positive strains B. cereus (ATCC 14579), B. subtilis (ATCC 6633), E. faecalis (ATCC 29122), S. aureus (ATCC 25923) and S. epidermidis (ATCC 14990), using the agar diffusion method through measuring the appearance of the inhibition zone on the surface of the top agar, as reported by Berghe and Vlietinck. Ampicillin (10 µg/well) was used as the positive reference standard. Bacterial viability was also investigated by determining the colony-forming ability (CFU) of bacteria incubated at different time intervals without or with appropriate amounts of the compound, which were mixed with 2 ×10^7 CFU/mL in sterile BHI and incubated under shaking for 60 min at 37 °C. Samples were serially diluted into sterile BHI, streaked onto media agar plates and incubated for 24 h at 37 °C. The antibacterial potency of the tested compounds was expressed as the residual number of CFUs with reference to the initial inoculums. The results presented as the half-maximal (50 %) inhibitory concentration (IC50) values are the means of three different measurements.

B. subtilis (ATCC 6633) [4] = assay: as above; format: cell-based
Procedure: as §1, §2

E. coli (ATCC 25966) [5] = assay: as above; format: cell-based; details: E. coil (ATCC 25966)
Procedure: as §1, §2

E. faecalis (ATCC 29122) [6] = assay: as above; format: cell-based
Procedure: as §1, §2

[7] = tested on: K. pneumonia (ATCC 700603); assay: as above; format: cell-based
Procedure: as §1, §2

[8] = tested on: P. aeruginosa (ATCC 27853); assay: as above; format: cell-based
Procedure: as §1, §2

S. aureus (ATCC 25923) [9] = assay: as above; format: cell-based
Procedure: as §1, §2

S. enteric (ATCC 43972) [10] = assay: as above; format: cell-based
Procedure: as §1, §2

[11] = tested on: S. epidermidis (ATCC 14990); assay: as above; format: cell-based
Procedure: as §1, §2

B. cereus (ATCC 14579) [12] = assay: Antibacterial viability (CFU) assay, IC50; format: cell-based; details: Bacillus cereus, ATCC14579
Procedure: as §1, §2

B. subtilis (ATCC 6633) [13] = assay: Antibacterial viability (CFU) assay, IC50; format: cell-based; details: Bacillus subtilis, ATCC6633, B. subtilis (ATCC 6633)
Procedure: as §1, §2

E. coli (ATCC 25966) [14] = assay: Antibacterial viability (CFU) assay, IC50; format: cell-based; details: Escherichia coli, ATCC25966; E. coil (ATCC 25966)
Procedure: as §1, §2

E. faecalis (ATCC 29122) [15] = assay: Antibacterial viability (CFU) assay, IC50; format: cell-based; details: Enterococcus faecalis, ATCC29122
Procedure: as §1, §2

[16] = tested on: K. pneumonia (ATCC 700603); assay: Antibacterial viability (CFU) assay, IC50; format: cell-based; details: Klebsiella pneumoniae, ATCC700603
Procedure: as §1, §2

[17] = tested on: P. aeruginosa (ATCC 27853); assay: Antibacterial viability (CFU) assay, IC50; format: cell-based; details: Pseudomonas aeruginosa, ATCC27853
Procedure: as §1, §2

S. aureus (ATCC 25923) [18] = assay: Antibacterial viability (CFU) assay, IC50; format: cell-based; details: Staphylococcus aureus, ATCC25923
Procedure: as §1, §2

S. enteric (ATCC 43972) [19] = assay: Antibacterial viability (CFU) assay, IC50; format: cell-based; details: read-out: IC50
Procedure: as §1, §2

[20] = tested on: S. epidermidis (ATCC 14990); assay: Antibacterial viability (CFU) assay, IC50; format: cell-based; details: Staphylococcus epidermidis, ATCC14990
Procedure: as §1, §2

HCT-116 cells = assay: Cell viability (cytotoxicity, LDH release) assay; format: cell-based; details: Homo sapiens, 24 h
Procedure: The synthesized compounds were also examined at four concentrations (10, 25, 50 and 100 µg/mL) for their cytotoxic effects on human colorectal cancer HCT-116 cells after their incubation together for 24 h.
Cytotoxic potency was examined for a human colon cancer cell line HCT-116 (American Type Culture Collection; Manassas, VA, USA) using various amounts of each compound (10, 25, 50 and 100 µg). Samples were diluted in Dulbecco’s Modified Eagle’s Medium, consisting of 10% Fetal Bovine Serum, and added to cells grown and cultured for 24 h in a 5% CO2-humidified incubator at 37 °C. Then, the activity of lactate dehydrogenase released from damaged cells was determined in the collected supernatant aliquots using an ELISA endpoint assay (Benchmark Plus, Bio-Rad, Hercules, CA, USA). As positive and negative controls, respectively, 0.1% Triton X-100 in the assay medium and the assay medium only were used. Cell viability, shown as mean values ± SDs (n = 3), was expressed as a relative percentage of the OD values determined at 600 nm in compound-treated cells and the control.

COc1cc(OC)c(C2C(C#N)=C(N)Oc3n[nH]c(C)c32)c(OC)c1 (stereo not shown) [5b, 6-Amino-3-methyl-4-(2,4,6-trimethoxy-phenyl)-2,4-dihydro-pyrano[2,3-c]pyrazole-5-carbonitrile]
IC50 ([1]; 0.03 to 1 mg/mL, 1 h, mean ± SD, triplicate, read-out: IC50 (mM) for DPPH Scavenging Potency): 1.78 ± 0.082 mM | DPPH Radical Scavenging Effenciency (%) at 1 mg/mL ([1]; at 1 mg/mL): 37.50 ± 2.12% | EC50 [2]: 467 ± 41 µM | IZ (mm) (B. cereus (ATCC 14579) [3]): 8.00 ± 1.41 mm | IZ (mm) (B. subtilis (ATCC 6633) [4]): 8.50 ± 0.71 mm | IZ (mm) (E. coli (ATCC 25966) [5]): 3.5 ± 0.71 mm | IZ (mm) (E. faecalis (ATCC 29122) [6]): 9.75 ± 1.06 mm | IZ (mm) [7]: 4.5 ± 0.7 mm | IZ (mm) [8]: 6.5 ± 0.7 mm | IZ (mm) (S. aureus (ATCC 25923) [9]): 5.50 ± 0.71 mm | IZ (mm) (S. enteric (ATCC 43972) [10]): 7.5 ± 0.7 mm | IZ (mm) [11]: 6.60 mm and 6.60 ± 0.57 mm | IC50 (B. cereus (ATCC 14579) [12]): 42.6 ± 1.66 µM | IC50 (B. subtilis (ATCC 6633) [13]): 41.8 ± 1.23 µM | IC50 (E. coli (ATCC 25966) [14]): 117 ± 4.09 µM | IC50 (E. faecalis (ATCC 29122) [15]): 45.1 ± 1.87 µM | IC50 [16]: 110 ± 1.75 µM | IC50 [17]: 92.3 ± 1.46 µM | IC50 (S. aureus (ATCC 25923) [18]): 39.1 ± 1.66 µM | IC50 (S. enteric (ATCC 43972) [19]): 106 ± 2.92 µM | IC50 [20]: 50.1 ± 0.61 µM | viability at 100 µg/mL (HCT-116 cells; 100 µg/mL, read-out: percent of viable cells): 11 to 32.5% | IC50 (HCT-116 cells; read-out: Mean IC50 (µM) of cytotoxicity): 97.9 ± 7.06 µM | IC50 (HCT-116 cells; read-out: Mean IC50 (µg/mL) of cytotoxicity): 33.5 ± 2.42 µg/mL | melting point: 182 to 184 °C
